# Test system: endogenous cellular STAT1 (phosphorylated at Tyr701) in NCI-H1373 cells
# Experiment: Phospho-STAT1 (Tyr701) LANCE Ultra TR-FRET Detection Assay
# Format: cell-based
# Conditions: Homo sapiens, NCI-H1373, 48 h, phospho-STAT1 (Tyr701) induction, read-out: NH1373 pSTAT1 EC50
row,SMILES,EC50
1,"C[C@@H](CCCn1ccc2cc(-c3ccc(F)c(C(F)F)n3)c(F)cc2c1=O)Nc1cn[nH]c(=O)c1C(F)(F)F [Example 330, (S)-6-(6-(difluoromethyl)-5-fluoropyridin-2-yl)-7-fluoro-2-(4-((6-oxo-5-(trifluoromethyl)-1,6-dihydropyridazin-4-yl)amino)pentyl)isoquinolin-1(2H)-one]",1210 nM
2,"COc1cc(-c2cc3ccn(CCC[C@H](C)Nc4cn[nH]c(=O)c4C(F)(F)F)c(=O)c3cc2F)ncc1C(F)(F)F [Example 331, (S)-7-fluoro-6-(4-methoxy-5-(trifluoromethyl)pyridin-2-yl)-2-(4-((6-oxo-5-(trifluoromethyl)-1,6-dihydropyridazin-4-yl)amino)pentyl)isoquinolin-1(2H)-one]",78.1 nM
3,"C[C@@H](CCCn1ccc2cc(-c3cn4ccnc4c(N)n3)c(F)cc2c1=O)Nc1cn[nH]c(=O)c1C(F)(F)F [Example 332, (S)-6-(8-aminoimidazo[1,2-a]pyrazin-6-yl)-7-fluoro-2-(4-((6-oxo-5-(trifluoromethyl)-1,6-dihydropyridazin-4-yl)amino)pentyl)isoquinolin-1(2H)-one]",8.92 nM
4,"C[C@@H](CCCn1ccc2cc(-c3ccc4ncsc4n3)c(F)cc2c1=O)Nc1cn[nH]c(=O)c1C(F)(F)F [Example 333, (S)-7-fluoro-2-(4-((6-oxo-5-(trifluoromethyl)-1,6-dihydropyridazin-4-yl)amino)pentyl)-6-(thiazolo[5,4-b]pyridin-5-yl)isoquinolin-1(2H)-one]",503 nM
5,"C[C@@H](CCCn1ccc2cc(-c3nc4cnccn4n3)c(F)cc2c1=O)Nc1cn[nH]c(=O)c1C(F)(F)F [Example 334, (S)-6-([1,2,4]triazolo[1,5-a]pyrazin-2-yl)-7-fluoro-2-(4-((6-oxo-5-(trifluoromethyl)-1,6-dihydropyridazin-4-yl)amino)pentyl)isoquinolin-1(2H)-one]",24.1 nM
6,"C[C@@H](CCCn1ccc2cc(-c3nc4cc(F)ccn4n3)c(F)cc2c1=O)Nc1cn[nH]c(=O)c1C(F)(F)F [Example 335, (S)-7-fluoro-6-(7-fluoro-[1,2,4]triazolo[1,5-a]pyridin-2-yl)-2-(4-((6-oxo-5-(trifluoromethyl)-1,6-dihydropyridazin-4-yl)amino)pentyl)isoquinolin-1(2H)-one]",5.57 nM
7,"C[C@@H](CCCn1ccc2cc(-c3ncc(-c4ccccc4F)cn3)c(F)cc2c1=O)Nc1cn[nH]c(=O)c1C(F)(F)F [Example 336, (S)-7-fluoro-6-(5-(2-fluorophenyl)pyrimidin-2-yl)-2-(4-((6-oxo-5-(trifluoromethyl)-1,6-dihydropyridazin-4-yl)amino)pentyl)isoquinolin-1(2H)-one]",95.1 nM
8,"C[C@@H](CCCn1cnc2cc(-c3cnc(C(F)(F)F)c(N)n3)c(F)cc2c1=O)Nc1cn[nH]c(=O)c1C(F)(F)F [Example 337, (S)-7-(6-amino-5-(trifluoromethyl)pyrazin-2-yl)-6-fluoro-3-(4-((6-oxo-5-(trifluoromethyl)-1,6-dihydropyridazin-4-yl)amino)pentyl)quinazolin-4(3H)-one]",36.6 nM
9,"CC[C@@H](CCCn1cnc2cc(-c3ccc(C(F)F)cn3)c(F)cc2c1=O)Nc1cn[nH]c(=O)c1C(F)(F)F [Example 338, (S)-7-(5-(difluoromethyl)pyridin-2-yl)-6-fluoro-3-(4-((6-oxo-5-(trifluoromethyl)-1,6-dihydropyridazin-4-yl)amino)hexyl)quinazolin-4(3H)-one]",218 nM
10,"CC[C@@H](CCCn1ccc2cc(-c3cnc(C(F)(F)F)c(N)n3)c(F)cc2c1=O)Nc1cn[nH]c(=O)c1C(F)(F)F [Example 339, (S)-6-(6-amino-5-(trifluoromethyl)pyrazin-2-yl)-7-fluoro-2-(4-((6-oxo-5-(trifluoromethyl)-1,6-dihydropyridazin-4-yl)amino)hexyl)isoquinolin-1(2H)-one]",17.4 nM
11,"CC[C@@H](CCCn1cnc2cc(-c3ccc(OC(F)F)cn3)c(F)cc2c1=O)Nc1cn[nH]c(=O)c1C(F)(F)F [Example 340, (S)-7-(5-(difluoromethoxy)pyridin-2-yl)-6-fluoro-3-(4-((6-oxo-5-(trifluoromethyl)-1,6-dihydropyridazin-4-yl)amino)hexyl)quinazolin-4(3H)-one]",97.1 nM
12,"C[C@@H](CCCn1ccc2cc(-c3ncc(Cl)c(N)n3)c(F)c(F)c2c1=O)Nc1cn[nH]c(=O)c1C(F)(F)F [Example 341, (S)-6-(4-amino-5-chloropyrimidin-2-yl)-7,8-difluoro-2-(4-((6-oxo-5-(trifluoromethyl)-1,6-dihydropyridazin-4-yl)amino)pentyl)isoquinolin-1(2H)-one]",1.95 nM
13,"CC[C@@H](CCCn1cnc2cc(-c3ncc(Cl)c(N)n3)c(F)cc2c1=O)Nc1cn[nH]c(=O)c1C(F)(F)F [Example 342, (S)-7-(4-amino-5-chloropyrimidin-2-yl)-6-fluoro-3-(4-((6-oxo-5-(trifluoromethyl)-1,6-dihydropyridazin-4-yl)amino)hexyl)quinazolin-4(3H)-one]",9.84 nM
14,"CC[C@@H](CCCn1ccc2cc(-c3ncc(OC)c(N)n3)c(F)cc2c1=O)Nc1cn[nH]c(=O)c1C(F)(F)F [Example 343, (S)-6-(4-amino-5-methoxypyrimidin-2-yl)-7-fluoro-2-(4-((6-oxo-5-(trifluoromethyl)-1,6-dihydropyridazin-4-yl)amino)hexyl)isoquinolin-1(2H)-one]",3.56 nM
15,"C[C@@H](CCCn1ccc2cc(-c3ncc(C4(F)COC4)c(N)n3)c(F)cc2c1=O)Nc1cn[nH]c(=O)c1C(F)(F)F [Example 344, (S)-6-(4-amino-5-(3-fluorooxetan-3-yl)pyrimidin-2-yl)-7-fluoro-2-(4-((6-oxo-5-(trifluoromethyl)-1,6-dihydropyridazin-4-yl)amino)pentyl)isoquinolin-1(2H)-one]",28.2 nM
16,"CC[C@@H](CCCn1ccc2cc(-c3ncc(C(F)F)cn3)c(F)cc2c1=O)Nc1cn[nH]c(=O)c1C(F)(F)F [Example 345, (S)-6-(5-(difluoromethyl)pyrimidin-2-yl)-7-fluoro-2-(4-((6-oxo-5-(trifluoromethyl)-1,6-dihydropyridazin-4-yl)amino)hexyl)isoquinolin-1(2H)-one]",6.71 nM
17,"CC[C@@H](CCCn1cnc2cc(-c3cnc(C(F)F)cn3)c(F)cc2c1=O)Nc1cn[nH]c(=O)c1C(F)(F)F [Example 346, (S)-7-(5-(difluoromethyl)pyrazin-2-yl)-6-fluoro-3-(4-((6-oxo-5-(trifluoromethyl)-1,6-dihydropyridazin-4-yl)amino)hexyl)quinazolin-4(3H)-one]",187 nM
18,"CC[C@@H](CCCn1cnc2cc(-c3cnc(C(F)(F)F)c(N)n3)c(F)cc2c1=O)Nc1cn[nH]c(=O)c1C(F)(F)F [Example 347, (S)-7-(6-amino-5-(trifluoromethyl)pyrazin-2-yl)-6-fluoro-3-(4-((6-oxo-5-(trifluoromethyl)-1,6-dihydropyridazin-4-yl)amino)hexyl)quinazolin-4(3H)-one]",93.4 nM
19,"CC[C@@H](CCCn1ccc2cc(-c3ncc(C(F)(F)F)c(N)n3)c(F)c(F)c2c1=O)Nc1cn[nH]c(=O)c1C(F)(F)F [Example 348, (S)-6-(4-amino-5-(trifluoromethyl)pyrimidin-2-yl)-7,8-difluoro-2-(4-((6-oxo-5-(trifluoromethyl)-1,6-dihydropyridazin-4-yl)amino)hexyl)isoquinolin-1(2H)-one]",6.47 nM
20,"C[C@@H](CCCn1ccc2cc(-c3cnc(C(F)(F)F)c(N)n3)c(F)c(F)c2c1=O)Nc1cn[nH]c(=O)c1C(F)(F)F [Example 349, (S)-6-(6-amino-5-(trifluoromethyl)pyrazin-2-yl)-7,8-difluoro-2-(4-((6-oxo-5-(trifluoromethyl)-1,6-dihydropyridazin-4-yl)amino)pentyl)isoquinolin-1(2H)-one]",11.8 nM
21,"CC[C@@H](CCCn1ccc2cc(-c3ncc(OC)c(N)n3)c(F)c(F)c2c1=O)Nc1cn[nH]c(=O)c1C(F)(F)F [Example 350, (S)-6-(4-amino-5-methoxypyrimidin-2-yl)-7,8-difluoro-2-(4-((6-oxo-5-(trifluoromethyl)-1,6-dihydropyridazin-4-yl)amino)hexyl)isoquinolin-1(2H)-one]",15.1 nM
22,"C[C@@H](CCCn1ccc2cc(-c3cnc(Cl)c(N)n3)c(F)cc2c1=O)Nc1cn[nH]c(=O)c1C(F)(F)F [Example 351, (S)-6-(6-amino-5-chloropyrazin-2-yl)-7-fluoro-2-(4-((6-oxo-5-(trifluoromethyl)-1,6-dihydropyridazin-4-yl)amino)pentyl)isoquinolin-1(2H)-one]",8.39 nM
23,"C[C@@H](CCCn1cnc2cc(-c3cnc(Cl)c(N)n3)c(F)cc2c1=O)Nc1cn[nH]c(=O)c1C(F)(F)F [Example 352, (S)-7-(6-amino-5-chloropyrazin-2-yl)-6-fluoro-3-(4-((6-oxo-5-(trifluoromethyl)-1,6-dihydropyridazin-4-yl)amino)pentyl)quinazolin-4(3H)-one]",64.4 nM
24,"CC[C@@H](CCCn1ccc2cc(-c3ncc(C(F)(F)F)cn3)c(F)c(F)c2c1=O)Nc1cn[nH]c(=O)c1C(F)(F)F [Example 353, (S)-7,8-difluoro-2-(4-((6-oxo-5-(trifluoromethyl)-1,6-dihydropyridazin-4-yl)amino)hexyl)-6-(5-(trifluoromethyl)pyrimidin-2-yl)isoquinolin-1(2H)-one]",16.1 nM
25,"C[C@@H](CCCn1cnc2cc(-c3nc(N)c4ccccc4n3)c(F)cc2c1=O)Nc1cn[nH]c(=O)c1C(F)(F)F [Example 354, (S)-4-amino-6'-fluoro-3'-(4-((6-oxo-5-(trifluoromethyl)-1,6-dihydropyridazin-4-yl)amino)pentyl)-[2,7'-biquinazolin]-4'(3'H)-one]",65.1 nM
26,"CC[C@@H](CCCn1ccc2cc(-c3ncc(C(F)F)cn3)c(F)c(F)c2c1=O)Nc1cn[nH]c(=O)c1C(F)(F)F [Example 355, (S)-6-(5-(difluoromethyl)pyrimidin-2-yl)-7,8-difluoro-2-(4-((6-oxo-5-(trifluoromethyl)-1,6-dihydropyridazin-4-yl)amino)hexyl)isoquinolin-1(2H)-one]",11.4 nM

# Source: US12459922B2 (Gilead Sciences, Inc., priority 2022, dated 2025)
